In patent US11578083B2, “Pyrimidinium compounds and their mixtures for combating animal pests” (BASF SE, priority 2017, dated 2023) one finds mortality and Average control % data, which are given here for 17 compounds.

Common to all, as to type: in vivo
The subject of assay [1] is Cowpea aphid (Aphis craccivora). Description: B.3 Cowpea aphid leaf disk test. Conditions: foliar, 120 h, Cowpea aphid, Dose 1 ppm, 5 days, read-out: Mortality %. The procedure: If not otherwise specified, the test solutions are prepared as follows:
The active compound is dissolved at the desired concentration in a mixture of 1:1 (vol:vol) distilled water: acetone. The test solution is prepared at the day of use.
B.3 Cowpea aphid (Aphis craccivora):
For evaluating control of Cowpea aphid through contact or systemic means the test unit consists of 24-well-microtiter plates containing broad bean leaf disks.
The compounds are formulated using a solution containing 75% v/v water and 25% v/v DMSO. Different concentrations of formulated compounds are sprayed onto the leaf disks at 2.5 μl, using a custom built micro atomizer, at two replications.
After application, the leaf disks are air-dried and 5-8 adult aphids placed on the leaf disks inside the microtiter plate wells. The aphids are then allowed to suck on the treated leaf disks and incubated at about 23±1° C. and about 50±5% relative humidity for 5 days. Aphid mortality and fecundity is then visually assessed.

Assay [2] concerns Rice green leafhopper (Nephotettix virescens). Nature of the assay: B.1 Rice green leafhopper, sprayed rice seedlings. Conditions: Rice green leafhopper, Dose 1 ppm, after 72 hours, read-out: Mortality %. How it is done:
B.1 Rice Green Leafhopper (Nephotettix virescens):
Rice seedlings are cleaned and washed 24 hours before spraying. The active compounds are formulated in 50:50 acetone:water (vol:vol), and 0.1% vol/vol surfactant (EL 620) is added. Potted rice seedlings are sprayed with 5 ml test solution, air dried, placed in cages and inoculated with 10 adults. Treated rice plants are kept at about 28-29° C. and relative humidity of about 50-60%. Percent mortality is recorded after 72 hours.

Assay [3] concerns Rice brown plant hopper (Nilaparvata lugens). Description: B.2 Rice brown plant hopper, sprayed rice seedlings. The following applies: Rice brown plant hopper, Dose 1 ppm, after 72 hours, read-out: Mortality %. The procedure: B.2 Rice Brown Plant Hopper (Nilaparvata lugens):
Rice seedlings are cleaned and washed 24 hours before spraying. The active compounds are formulated in 50:50 acetone:water (vol:vol) and 0.1% vol/vol surfactant (EL 620) is added. Potted rice seedlings are sprayed with 5 ml test solution, air dried, placed in cages and inoculated with 10 adults. Treated rice plants are kept at about 28-29° C. and relative humidity of about 50-60%. Percent mortality is recorded after 72 hours.

For assay [4], the system named is Thrips (Dichromothrips corbetti). Description: B.4 Thrips floral-immersion test. Conditions: Dose 10 ppm, 72 hours after treatment, read-out: Mortality %. How it is done:
B.4 Thrips (Dichromothrips Corbetti):
Dichromothrips corbetti adults used for bioassay are obtained from a colony maintained continuously under laboratory conditions. For testing purposes, the test compound is diluted in a 1:1 mixture of acetone:water (vol:vol), plus 0.01% vol/vol Alkamuls® EL 620 surfactant.
Thrips potency of each compound is evaluated by using a floral-immersion technique. Plastic petri dishes are used as test arenas. All petals of individual, intact orchid flowers are dipped into treatment solution and allowed to dry. Treated flowers are placed into individual petri dishes along with about 20 adult thrips. The petri dishes v then covered with lids. All test arenas are held under continuous light and a temperature of about 28° C. for duration of the assay. After 3 days, the numbers of live thrips are counted on each flower, and along inner walls of each petri dish. The percent mortality is recorded 72 hours after treatment.

For assay [5], the system named is green peach aphid (Myzus persicae). Nature of the assay: Test 8 green peach aphid, artificial diet (mixtures). An excerpt: (§1) For evaluating control of green peach aphid (Myzus persicae) through systemic means the test unit consisted of 96-well-microtiter plates containing liquid artificial diet under an artificial membrane.
(§2) The compounds or mixtures were formulated using a solution containing 75% water and 25% DMSO. Concentrations of formulated compounds or mixtures were pipetted into the aphid diet, using a custom built pipetter, at two replications.
(§3) For experimental mixtures in these tests identical volumes of both mixing partners at the desired concentrations respectively, were mixed together.
(§4) After application, 5-8 adult aphids were placed on the artificial membrane inside the microtiter plate wells. The aphids were then allowed to suck on the treated aphid diet and incubated at 23±1° C., 50±5% RH for 3 days. Aphid mortality and fecundity was then visually assessed.

Assay [6] has the same test system. Nature of the assay: Test 2 green peach aphid, artificial diet (mixtures).
Description: as §1, §2, §3, §4

Assay [7] has as its system tobacco budworm (Heliothis virescens). Nature of the assay: Test 10 tobacco budworm, insect diet with eggs (mixtures). The following applies: use rate 2500 ppm. The procedure: (§5) For evaluating control of tobacco budworm (Heliothis virescens) the test unit consisted of 96-well-microtiter plates containing an insect diet and 15-25 H. virescens eggs.
The compounds or mixtures were formulated using a solution containing 75% water and 25% DMSO. Different concentrations of formulated compounds or mixtures were sprayed onto the insect diet at 10 μl, using a custom built micro atomizer, at two replications.
as §3
(§6) After application, microtiter plates were incubated at 28±1° C., 80±5% RH for 5 days. Egg and larval mortality was then visually assessed.

For assay [8] the test system is unchanged. Nature of the assay: Test 4 tobacco budworm, insect diet with eggs (mixtures). The procedure: as §5
The compounds or mixtures were formulated using a solution containing 75% water and 25% DMSO. Concentrations of formulated compounds or mixtures were sprayed onto the insect diet at 10 μl, using a custom built micro atomizer, at two replications.
as §3, §6

In assay [9] the test system is brown planthopper (Nilaparvata lugens). Nature of the assay: Test 6 brown planthopper, foliar spray (mixtures). The following applies: Table 6.1, after 7 days, solo application Pymetrozine, use rate 300 ppm. How it is done: For evaluating control of brown planthopper (Nilaparvata lugens) by foliar spray method. Clean potted rice seedlings with upper leaf portion cut are properly labeled. Placed three potted rice plants per treatment concentration/combination on top of the rotating disc (270 mm) and sprayed with the 12 mL spray solution. Treated plants are allowed to air-dry in the laboratory for about an hour. After air-drying, covered each treated rice plant. Each treated plant was infested with brown planthoppers using a suction vacuum. Plants are maintained at 27° C.±1° C., 50±5% RH and 24 hours light conditions in a holding room. Percent mortality is recorded 7 days after infestation by counting both the dead and alive brown planthoppers on the plants and on the water.

For assay [10], the system named is Greenhouse Whitefly (Trialeurodes vaporariorum). Description: Test 11 Greenhouse Whitefly, egg plant leaf disk (mixtures). The following applies: use rate 2500 ppm. The procedure: For evaluating control of Greenhouse Whitefly (Trialeurodes vaporariorum) the test unit consisted of 96-well-microtiter plates containing a leaf disk of egg plant leaf disk with white fly eggs.
The compounds or mixtures were formulated using a solution containing 75% water and 25% DMSO. Different concentrations of formulated compounds or mixtures were sprayed onto the insect diet at 2.5 μl, using a custom built micro atomizer, at two replications.
as §3
After application, microtiter plates were incubated at 23±1° C., 65±5% RH for 6 days. Mortality of hatched crawlers was then visually assessed.

Assay [11] relates to vetch aphid (Megoura viciae). Nature of the assay: Test 7 vetch aphid, leaf disks (mixtures). Conditions: use rate 2500 ppm. How it is done:
For evaluating control of vetch aphid (Megoura viciae) through contact or systemic means the test unit consisted of 24-well-microtiter plates containing broad bean leaf disks.
The compounds or mixtures were formulated using a solution containing 75% water and 25% DMSO. Concentrations of formulated compounds or mixtures were sprayed onto the leaf disks at 2.5 μl, using a custom built micro atomizer, at two replications.
as §3
After application, the leaf disks were air-dried and 5-8 adult aphids placed on the leaf disks inside the microtiter plate wells. The aphids were then allowed to suck on the treated leaf disks and incubated at 23±1° C., 50±5% RH for 5 days. Aphid mortality and fecundity was then visually assessed.

Assay [12] deals with boll weevil (Anthonomus grandis). Nature of the assay: Test 3 boll weevil, insect diet with eggs (mixtures). How it is done:
(§7) For evaluating control of boll weevil (Anthonomus grandis) the test unit consisted of 24-well-microtiter plates containing an insect diet and 20-30 A. grandis eggs.
(§8) The compounds or mixtures were formulated using a solution containing 75% water and 25% DMSO. Concentrations of formulated compounds or mixtures were sprayed onto the insect diet at 20 μl, using a custom built micro atomizer, at two replications.
as §3
(§9) After application, microtiter plates were incubated at 23±1° C., 50±5% RH for 5 days. Egg and larval mortality was then visually assessed.

The test system is the same in assay [13]. Nature of the assay: Test 9 boll weevil, insect diet with eggs (mixtures). The procedure: as §7, §8, §3, §9

What is called mortality is the percentage killed.

Regarding `C[n+]1c([O-])c(-c2ccccc2)c(=O)n2c1SC[C@H]2c1cnc(Cl)s1` [I-S-1, S-3-(2-chlorothiazol-5-yl)-8-methyl-7-oxo-6-phenyl-2,3-dihydrothiazolo[3,2-a] pyrimidin-8-ium-5-olate], the mortality at 1 ppm in assay [1], in assay [2] and in [3] was 0% in each case. Besides, the mortality at 10 ppm in assay [4] is 0%.
As for `C[C@@H](NC(=O)C(C#N)C(C)(C)C)c1ccc(Cl)cc1Cl` (stereo partly shown) [Dicyclomet, dicyclomet, reference compound], the Average control % in assay [5] (Table 8.2, solo application Dicyclomet, use rate 2500 ppm) was 0%.
`COC(=O)N(C(=O)N1CO[C@@]2(C(=O)OC)Cc3cc(Cl)ccc3C2=N1)c1ccc(OC(F)(F)F)cc1` [Indoxacarb, indoxacarb, reference compound]: the Average control % in assay [6] (Table 2.4, solo application Indoxacarb, use rate 2 ppm) is 0%.
As for `O=c1c(-c2cccc(C(F)(F)F)c2)c([O-])[n+](Cc2cncnc2)c2ccccn12` [Triflumezopyrim, triflumezopyrim, reference compound], in [6] (Table 2.3, solo application Triflumezopyrim, use rate 0.4 ppm), the Average control % is reported as 0%.
`O=C1CCc2cccc3c2N1CC3` [Pyroquilon, pyroquilon, reference compound]: in [7] (Table 10.2, solo application Pyroquilon), the Average control % was found to be 0%.
Regarding `CC1=NNC(=O)N(/N=C/c2cccnc2)C1` [Pymetrozine, pymetrozine, reference compound], the Average control % amounted to 0% in assay [8] (Table 4.1, solo application Pymetrozine, use rate 10 ppm) and 26% in [9].
Consider `CC1(C)C(C=C(Cl)Cl)C1C(=O)OC(C#N)c1cccc(Oc2ccccc2)c1` (stereo not drawn) [Alpha-Cypermethrin, alpha-cypermethrin, reference compound], for which the Average control % in assay [6] (Table 2.6, solo application Alpha-Cypermethrin, use rate 10 ppm) was 0%; in [8] (Table 4.2, solo application Alpha-Cypermethrin, use rate 2 ppm), 50%.
Turning to `CC(C)N1C(=O)N(c2ccccc2)CS/C1=N\C(C)(C)C` [Buprofezin, buprofezin, reference compound], the Average control % in assay [10] (Table 11.2, solo application Buprofezin) is given as 50%.
In the case of spinosad [reference compound], the Average control % in assay [6] (Table 2.1, solo application Spinosad, use rate 4 ppm) came out at 0%.
For `C=CCOC1=NS(=O)(=O)c2ccccc21` [Probenazole, probenazole, reference compound], the Average control % in assay [5] (Table 8.1, solo application Probenazole, use rate 500 ppm) is given as 0%; in assay [7] (Table 10.1, solo application Probenazole) it was 0%.
In the case of `Cc1nn(C)c(Cl)c1C(=O)Nc1cccc2c1C(C)OC2(C)C` (stereo not shown) [Furametpyr, furametpyr, reference compound], the Average control % in assay [11] (Table 7.1, solo application Furametpyr) is given as 0%.
On to `N#CCNC(=O)c1cnccc1C(F)(F)F` [Flonicamid, flonicamid, reference compound], for which the Average control % in assay [6] (Table 2.5, solo application Flonicamid, use rate 2 ppm) was determined as 0%.
Take `O=C(NC(=O)c1c(F)cccc1F)Nc1ccc(Oc2ccc(C(F)(F)F)cc2Cl)cc1F` [Flufenoxuron, flufenoxuron, reference compound]: the Average control % in [6] (Table 2.2, solo application Flufenoxuron, use rate 0.8 ppm) was 0%; in [12] (Table 3.1, solo application Flufenoxuron, use rate 0.8 ppm), 0%.
Consider `COCC(=O)N(c1c(C)cccc1C)C(C)C(=O)OC` (stereo not shown) [Metalaxyl, metalaxyl, reference compound], for which the Average control % was determined as 0% in assay [11] (Table 7.2, solo application Metalaxyl) and 0% in assay [13] (Table 9.2, solo application Metalaxyl, use rate 500 ppm).
As for `CON=CNC(=O)c1ccc(C2=NOC(c3cc(Cl)cc(Cl)c3)(C(F)(F)F)C2)cc1C` (stereo not shown) [Fluxametamide, fluxametamide, reference compound], the Average control % in assay [12] (Table 3.3, solo application Fluxametamide, use rate 0.4 ppm) was 25%.
On to `C[Si](C)(C)CC(O)(Cn1cncn1)c1ccc(F)cc1` (stereo not shown) [Simeconazol, simeconazole, reference compound], for which the Average control % in assay [10] (Table 11.1, solo application Simeconazol) was determined as 0%.
Take `Cc1nn(C)c(F)c1C(=O)Nc1ccccc1C(C)CC(C)C` (stereo not shown) [Penflufen, penflufen, reference compound]: the Average control % in assay [13] (Table 9.1, solo application Penflufen, use rate 2500 ppm) was found to be 0%.
